Test results reported in patent publication US9366682B2, “Use of stathmin as a biomarker of drug response to furazanobenzimidazoles” (BASILEA PHARMACEUTICA AG, priority 2011, dated 2016).

Tests used:
Assay type in all cases: cell-based, human
[1] = tested on: LXFE211 patient-derived lung cancer cells; assay: Colony outgrowth assay, patient-derived lung cancer LXFE211; set-up: key to Response (sensitive/resistant): BAL27862-sensitive tumour cells were those that had IC70 values in the low nanomolar range; BAL27862-resistant tumour cells had IC70 values >600 nanomolar; details: for Response (sensitive/resistant): colony outgrowth, Lung LXFE211, by IC70 criteria
Experimental: (§1) Single cell suspensions of patient-derived tumour xenografts (maintained in nude mice) were prepared. For colony outgrowth assays, cells were plated in soft agar in 24-well plates according to the assay introduced by Hamburger & Salmon (Primary bioassay of human tumour stem cells, Science, 1977, 197:461-463). 2×10^4-6×10^4 cells in 0.2 mL medium containing 0.4% agar were plated out on a bottom layer of 0.75% agar. Test compounds were applied in 0.2 mL culture medium. Every 24-well plate contained untreated controls and samples in triplicates. Cultures were incubated at 37° C. and 7.5% CO2 for 5-28 days. 24 hours prior to analysis, vital colonies were stained with a solution of metabolizable tetrazolium salt (Alley M C et al, Life Sci. 1982, 31:3071-3078) and were counted with an automatic image analysis system (Omnicon 3600, Biosys GmbH).
(§2) Relative drug effects were expressed by the ratio of the mean number of colonies in the treated wells and the control wells. IC70-values were determined by plotting compound concentrations versus relative colony counts.

[2] = tested on: HeLa cervical cancer cells; assay: Immunofluorescent staining of microtubules in cultured cells; details: 24 hours treatment with 50 nM, anti-alpha-tubulin staining
Experimental: (§3) A549 human non-small cell lung cancer (NSCLC, ATCC reference number CCL-185) cells, HeLa cervical cancer cells (ATCC reference number CCL-2) and SKBR3 breast carcinoma cells (ATCC reference number HTB-30) were seeded at densities of 50% on round microscope coverslips and cultured for 24 hours in RPMI-1640 containing 10% FCS (also referred to as FBS) at 37° C., 5% CO2. Compounds to be tested were dissolved in DMSO. The cell culture medium was replaced with medium containing the diluted compound(s) (paclitaxel, vinblastine, colchicine and nocodazole were purchased from Sigma-Aldrich) or vehicle. After treatment for the times indicated in the Brief Description of the Figures, coverslips were washed and cells were fixed in methanol/acetone (1:1) for 5 minutes at room temperature and subsequently incubated in blocking buffer (0.5% BSA and 0.1% TX-100 in PBS) for 30 minutes at room temperature. Specimens were then incubated with anti-alpha-tubulin antibody (Sigma, 1:2000) for 1 hour at room temperature in blocking buffer. After several washing steps cells were incubated with AlexaFluor-488 goat-anti-mouse IgG (Molecular Probes, 1:3000) for 1 hour at room temperature followed by several washing steps with blocking buffer. Specimens were then mounted with ProLong Gold antifade (Molecular Probes), sealed with nail polish and examined with a Leica immunofluorescence microscope. Images were captured with a cooled CCD-camera and processed by ImageJ software.

A549 NSCLC cells = assay: as above; details: for Microtubule phenotype, combination treatment: colchicine; for Microtubule phenotype: A549, 24 hours treatment, mitotic or G2/M arrested cells, anti-alpha-tubulin staining, BAL27862 50 nM, Compound B 80 nM, Compound C 20 nM
Experimental: as §3

[3] = tested on: SKBR3 breast cancer cells; assay: as above; details: SKBR3, 24 hours treatment with 50 nM, anti-alpha-tubulin staining
Experimental: as §3

[4] = tested on: MEXF 989 patient-derived melanoma cells; assay: Colony outgrowth assay, patient-derived melanoma MEXF 989; details: for Response (sensitive/resistant): colony outgrowth, melanoma MEXF 989 (resistant model 2), by IC70 criteria
Experimental: as §1, §2

[5] = tested on: LXFE397 patient-derived lung cancer cells; assay: Colony outgrowth assay, patient-derived lung cancer LXFE397
Experimental: as §1, §2

[6] = tested on: GXF 97 patient-derived gastric tumour cells; assay: Colony outgrowth assay, patient-derived gastric tumour GXF 97; set-up: key to Response (sensitive/resistant): BAL27862-sensitive tumour cells were those that had IC70 values in the low nanomolar range; BAL27862-resistant tumour cells had IC70 values >600 nanomolar; details: for Response (sensitive/resistant): colony outgrowth, Gastric GXF 97, by IC70 criteria
Experimental: as §1, §2

[7] = tested on: MEXF 1341 patient-derived melanoma cells; assay: Colony outgrowth assay, patient-derived melanoma MEXF 1341; set-up: key to Response (sensitive/resistant): BAL27862-sensitive tumour cells were those that had IC70 values in the low nanomolar range; BAL27862-resistant tumour cells had IC70 values >600 nanomolar; details: for Response (sensitive/resistant): colony outgrowth, melanoma MEXF 1341, by IC70 criteria
Experimental: as §1, §2

[8] = tested on: GXF 251 patient-derived gastric tumour cells; assay: Colony outgrowth assay, patient-derived gastric tumour GXF 251; set-up: key to Response (sensitive/resistant): BAL27862-sensitive tumour cells were those that had IC70 values in the low nanomolar range; BAL27862-resistant tumour cells had IC70 values >600 nanomolar; details: for Response (sensitive/resistant): colony outgrowth, Gastric GXF 251, by IC70 criteria
Experimental: as §1, §2

[9] = tested on: MEXF 276 patient-derived melanoma cells; assay: Colony outgrowth assay, patient-derived melanoma MEXF 276; set-up: key to Response (sensitive/resistant): BAL27862-sensitive tumour cells were those that had IC70 values in the low nanomolar range; BAL27862-resistant tumour cells had IC70 values >600 nanomolar; details: for Response (sensitive/resistant): colony outgrowth, melanoma MEXF 276 (resistant model 1), by IC70 criteria
Experimental: as §1, §2

| SMILES | Response (sensitive/resistant) [1] | Microtubule phenotype (A549 NSCLC cells) | Response (sensitive/resistant) [6] | Response (sensitive/resistant) [7] | Response (sensitive/resistant) [8] | further results |
| --- | --- | --- | --- | --- | --- | --- |
| N#CCCNc1nonc1-c1nc2ccccc2n1CC(=O)c1ccc(N)cc1 [BAL27862, 3-(4-{1-[2-(4-Amino-phenyl)-2-oxo-ethyl]-1H-benzoimidazol-2-yl}-furazan-3-ylamino)-propionitrile] | sensitive | multiple dot-like structures | resistant (BAL27862-resistant tumour cells had IC70 values >600 nanomolar) | sensitive | sensitive | IC70 ([1]; 70% growth inhibition versus controls, Lung LXFE211): 0.021 µM; Microtubule phenotype [2]: highly reproducible and distinct microtubule phenotype; Microtubule phenotype, combination treatment (A549 NSCLC cells; A549, 24 hours BAL27862 with the final 4 hours including vinblastine, paclitaxel or nocodazole): no impact on the observed microtubule phenotype; Microtubule phenotype (A549 NSCLC cells; listed as compound A): highly reproducible and distinct microtubule phenotype; Microtubule phenotype, combination treatment (A549 NSCLC cells; A549, 24 hours vinblastine, paclitaxel or nocodazole with the final 4 hours including BAL27862): disruption of the microtubule structures; Microtubule phenotype [3]: highly reproducible and distinct microtubule phenotype; IC70 ([4]; 70% growth inhibition versus controls, melanoma MEXF 989): >3.5 µM; IC70 ([5]; 70% growth inhibition versus controls, Lung LXFE397): >3.5 µM; Response (sensitive/resistant) ([5]; colony outgrowth, Lung LXFE397, by IC70 criteria): resistant (BAL27862-resistant tumour cells had IC70 values >600 nanomolar); IC70 ([6]; 70% growth inhibition versus controls, Gastric GXF 97): >3.5 µM; IC70 ([7]; 70% growth inhibition versus controls, melanoma MEXF 1341): 0.025 µM; IC70 ([8]; 70% growth inhibition versus controls, Gastric GXF 251): 0.485 µM; IC70 ([9]; 70% growth inhibition versus controls, melanoma MEXF 276): >3.5 µM |
| Nc1ccc(C(=O)Cn2c(-c3nonc3N)nc3ccccc32)cc1 [Compound B, 2-[2-(4-Amino-furazan-3-yl)-benzoimidazol-1-yl]-1-(4-amino-phenyl)-ethanone] | – | highly reproducible and distinct microtubule phenotype | – | – | – | – |
| N#CCCNc1nonc1-c1nc2ccccc2n1CC(=O)c1ccc(N)nc1 [Compound C, 3-(4-{1-[2-(6-Amino-pyridin-3-yl)-2-oxo-ethyl]-1H-benzoimidazol-2-yl}-furazan-3-ylamino)-propionitrile] | – | highly reproducible and distinct microtubule phenotype | – | – | – | – |
| COc1cc2c(c(OC)c1OC)-c1ccc(OC)c(=O)cc1[C@@H](NC(C)=O)CC2 [colchicine, reference compound] | – | mitotic microtubule phenotypes characteristic of these agents | – | – | – | – |
| COC(=O)Nc1nc2ccc(C(=O)c3cccs3)cc2[nH]1 [nocodazole, reference compound] | – | mitotic microtubule phenotypes characteristic of these agents | – | – | – | – |
| CC(=O)O[C@H]1C(=O)[C@@]2(C)[C@H]([C@H](OC(=O)c3ccccc3)[C@]3(O)C[C@H](OC(=O)[C@H](O)[C@@H](NC(=O)c4ccccc4)c4ccccc4)C(C)=C1C3(C)C)[C@]1(OC(C)=O)CO[C@@H]1C[C@@H]2O [paclitaxel, reference compound] | esistant | mitotic microtubule phenotypes characteristic of these agents | resistant (BAL27862-resistant tumour cells had IC70 values >600 nanomolar) | resistant (BAL27862-resistant tumour cells had IC70 values >600 nanomolar) | resistant (BAL27862-resistant tumour cells had IC70 values >600 nanomolar) | Response (sensitive/resistant) [4]: resistant (BAL27862-resistant tumour cells had IC70 values >600 nanomolar); Response (sensitive/resistant) [9]: resistant (BAL27862-resistant tumour cells had IC70 values >600 nanomolar) |
| CC[C@]1(O)C[C@@H]2CN(CCc3c([nH]c4ccccc34)[C@@](C(=O)OC)(c3cc4c(cc3OC)N(C)[C@H]3[C@@](O)(C(=O)OC)[C@H](OC(C)=O)[C@]5(CC)C=CCN6CC[C@]43[C@@H]65)C2)C1 [vinblastine, reference compound] | sensitive | mitotic microtubule phenotypes characteristic of these agents | sensitive | sensitive | sensitive | Response (sensitive/resistant) [4]: resistant (BAL27862-resistant tumour cells had IC70 values >600 nanomolar); Response (sensitive/resistant) [9]: sensitive |
